The record followed here is PubChem BioAssay (NCI).

Among the test systems are ACHN renal; HS 578T breast; KM12 colon; NCI-H23 lung; OVCAR-3 ovarian; PC-3 prostate; SF-295 CNS; SN12C renal; SW-620 colon; UACC-62 melanoma.
Holding throughout (assay): NCI tumour cell line growth inhibition, 48 h

Structures are written as SMILES.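 Growth conditions: 96-well plates. Treatment: test compound, 48 hours, 5 concentrations. Analysis: linear interpolation between bracketing concentrations; unreached endpoints set to highest concentration. GI50: concentration for 50% inhibition of growth. TGI is the concentration that stops growth completely.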

With `NC1CCC(Nc2nc(NCc3cc(Cl)ccc3O)c3ncn(C4CCCC4)c3n2)CC1` (stereo not given), the GI50 in the experiment on ACHN renal is 0.183 µM; with HS 578T breast, 0.222 µM; with KM12 colon, 0.132 µM; in the experiment on NCI-H23 lung, 0.153 µM; with OVCAR-3 ovarian, 0.133 µM; in the experiment on PC-3 prostate it was 0.16 µM. Further, the GI50 with SF-295 CNS is 0.159 µM; in the experiment on SN12C renal, 0.143 µM; with SW-620 colon, 0.15 µM; with UACC-62 melanoma, 0.149 µM. For the same compound, the TGI in the experiment with ACHN renal is 0.527 µM; in the experiment on HS 578T breast it was 0.893 µM; in the experiment on KM12 colon, 1.02 µM; in the experiment on NCI-H23 lung, 0.478 µM; in the experiment on OVCAR-3 ovarian it was 0.64 µM; in the experiment on PC-3 prostate it was 0.592 µM. The TGI was found to be 0.542 µM in the experiment on SF-295 CNS, 0.759 µM in the experiment with SN12C renal, 0.922 µM in the experiment with SW-620 colon and 0.335 µM in the experiment on UACC-62 melanoma.
On to `Cc1ccc(/C=C/C(=N/N=C(N)N)c2ccccc2)cc1`, for which the GI50 with ACHN renal is 4.17 µM; in the experiment with HS 578T breast, 1.56 µM; in the experiment with KM12 colon, 2.97 µM; in the experiment with NCI-H23 lung, 2.76 µM; in the experiment on OVCAR-3 ovarian, 2.28 µM; in the experiment with PC-3 prostate it was 3.32 µM. In addition, the GI50 was 2.99 µM with SF-295 CNS, 4.5 µM in the experiment with SN12C renal, 2.47 µM with SW-620 colon and 2.65 µM with UACC-62 melanoma. For the same compound, the TGI with ACHN renal worked out at 17.4 µM; in the experiment on HS 578T breast it was 5.14 µM; in the experiment on KM12 colon, 13.2 µM; in the experiment on NCI-H23 lung it was 11.8 µM; in the experiment on OVCAR-3 ovarian it was 6.03 µM; in the experiment with PC-3 prostate it was 16.9 µM. Besides, the TGI with SF-295 CNS stood at 13.1 µM; with SN12C renal, 16.9 µM; in the experiment with SW-620 colon, 13.8 µM; in the experiment on UACC-62 melanoma, 11.9 µM.
For the compound `CCCCCCCCCCC/C=C\C[C@H](O)C/C=C1/C(=O)C=C[C@@H]1C/C=C\CCCC(=O)OC`, the GI50 is 1.23 µM in the experiment with ACHN renal; 0.986 µM in the experiment with HS 578T breast; 0.852 µM in the experiment on KM12 colon; 0.687 µM with NCI-H23 lung; 0.671 µM in the experiment with OVCAR-3 ovarian; 0.836 µM with PC-3 prostate. Moreover, the GI50 was 1.37 µM in the experiment with SF-295 CNS, 0.841 µM in the experiment with SN12C renal, 1.09 µM in the experiment on SW-620 colon and 0.553 µM in the experiment with UACC-62 melanoma. For the same compound, the TGI stood at 4.9 µM in the experiment on ACHN renal; 6.1 µM with HS 578T breast; 2.45 µM in the experiment with KM12 colon; 1.58 µM with NCI-H23 lung; 1.49 µM in the experiment with OVCAR-3 ovarian; 2.76 µM in the experiment on PC-3 prostate. For the same compound, the TGI with SF-295 CNS is 6.74 µM; in the experiment with SN12C renal it was 2.29 µM; in the experiment on SW-620 colon, 4.05 µM; in the experiment with UACC-62 melanoma, 1.33 µM.
On to `c1ccc(Nc2nc(-c3ccccn3)cs2)nc1`, for which the GI50 was 0.341 µM in the experiment with ACHN renal; 2.91 µM in the experiment with HS 578T breast; 0.381 µM with KM12 colon; 0.972 µM in the experiment with NCI-H23 lung; 0.273 µM with OVCAR-3 ovarian; 0.568 µM in the experiment on PC-3 prostate. The GI50 in the experiment on SF-295 CNS is 0.297 µM; with SN12C renal it was 0.873 µM; with SW-620 colon it was 0.61 µM; in the experiment with UACC-62 melanoma, 0.48 µM. For the same compound, the TGI was above 100 µM in the experiment with ACHN renal; above 100 µM with HS 578T breast; 15.9 µM with KM12 colon; above 32.7 µM in the experiment with NCI-H23 lung; 19.6 µM in the experiment on OVCAR-3 ovarian; above 89.9 µM in the experiment with PC-3 prostate. For the same compound, the TGI in the experiment with SF-295 CNS is 6.61 µM; in the experiment on SN12C renal, above 100 µM; in the experiment with SW-620 colon, 19.9 µM; with UACC-62 melanoma it was above 43 µM.
`O=C1C=CC(=Nc2ccccc2)c2ccccc21`: the TGI with ACHN renal stood at 27.4 µM; in the experiment with HS 578T breast it was 88.6 µM; in the experiment with KM12 colon it was 25.6 µM; in the experiment with NCI-H23 lung, 13.1 µM; in the experiment with OVCAR-3 ovarian it was 7.23 µM; in the experiment with PC-3 prostate, 22.6 µM. Further, the TGI with SF-295 CNS was 21.1 µM; with SN12C renal, 25.7 µM; in the experiment with SW-620 colon, above 100 µM; with UACC-62 melanoma, 12.9 µM.
In the case of `CC[C@@H](C(=O)[C@H](C)[C@H](O)[C@@H](C)[C@H]1O[C@H]([C@@H](CC)C(=O)O)CC[C@H]1C)C1O[C@]2(C=C[C@@H](O)[C@]3(CC[C@@](C)([C@H]4CC[C@](O)(CC)[C@H](C)O4)O3)O2)[C@H](C)C[C@@H]1C` (stereo not given in full), the GI50 with ACHN renal is 0.77 µM; in the experiment on HS 578T breast, 0.239 µM; in the experiment on KM12 colon, 0.723 µM; with NCI-H23 lung it was 0.296 µM; in the experiment with OVCAR-3 ovarian, 0.0842 µM; in the experiment with PC-3 prostate, 0.0692 µM. Further, the GI50 in the experiment with SF-295 CNS was 0.474 µM; in the experiment with SN12C renal it was 0.159 µM; with SW-620 colon, 0.966 µM; in the experiment with UACC-62 melanoma, 1.05 µM. The TGI stood at 40.2 µM in the experiment with ACHN renal; 18.4 µM in the experiment on HS 578T breast; 12.9 µM in the experiment on KM12 colon; 7.24 µM in the experiment on NCI-H23 lung; 18.8 µM with OVCAR-3 ovarian; 49 µM in the experiment with PC-3 prostate. Also, the TGI with SF-295 CNS came to 5.54 µM; in the experiment with SN12C renal, 16.4 µM; in the experiment with SW-620 colon, 10.7 µM; in the experiment on UACC-62 melanoma it was 2.28 µM.
Take `CCC(CCC(C)C1CCC2C3CC=C4CC(OC5OC(CO)C(O)C(O)C5O)CCC4(C)C3CCC12C)C(C)C` (stereo not given): the TGI in the experiment with ACHN renal, with HS 578T breast, in the experiment on KM12 colon, in the experiment with NCI-H23 lung, in the experiment with OVCAR-3 ovarian and in the experiment with PC-3 prostate was above 100 µM in each case. For the same compound, the TGI in the experiment on SF-295 CNS, with SN12C renal, in the experiment with SW-620 colon and in the experiment on UACC-62 melanoma was above 100 µM throughout.
With `CC(=O)c1ccc(Nc2nc(Nc3ccc(F)cc3)nc(Nc3ccc(F)cc3)n2)cc1`, the GI50 in the experiment on ACHN renal is 14.7 µM; in the experiment with HS 578T breast it was 4.85 µM; in the experiment with KM12 colon it was 8.67 µM; with NCI-H23 lung it was 35.7 µM; in the experiment with OVCAR-3 ovarian, 10.6 µM; in the experiment with PC-3 prostate, 8.89 µM. Also, the GI50 with SF-295 CNS is 7.13 µM; in the experiment on SN12C renal, 23.6 µM; with SW-620 colon, 13.4 µM; in the experiment with UACC-62 melanoma, 28.9 µM. In addition, the TGI with ACHN renal is 45.1 µM; in the experiment with HS 578T breast, 20.2 µM; in the experiment with KM12 colon, 97.9 µM; with NCI-H23 lung, above 100 µM; in the experiment with OVCAR-3 ovarian, 33 µM; in the experiment on PC-3 prostate, above 100 µM. For the same compound, the TGI is 24.2 µM in the experiment with SF-295 CNS, above 100 µM in the experiment with SN12C renal, 88 µM in the experiment with SW-620 colon and above 100 µM in the experiment with UACC-62 melanoma.
